Data reported in ChEMBL document CHEMBL5108005, “Rational design of a trypanocidal peptide derived from Dinoponera quadriceps venom” (Eur J Med Chem, 2022).
Calls of active or inactive are those of the source. The calls are words filed in the database; no cut-off is given here.

Experiments:
Trypanosoma cruzi [1] = assay: Induction of cell death in Trypanosoma cruzi Y epimastigotes assessed as early apoptotic cells at 125 uM incubated for 24 hrs by Annexin V/7-AAD staining based flow cytometric analysis (reference value: 0.11 %); assay type: functional
[2] = Cytotoxicity against monkey LLC-MK2 cells assessed as reduction in cell viability incubated for 24 hrs by MTT assay; assay type: toxicity, cell-based; conditions: Macaca mulatta (monkey)
Trypanosoma cruzi [3] = assay: Antitrypanosomal activity against Trypanosoma cruzi Y epimastigotes assessed as parasite growth inhibition measured after 72 hrs by hemocytometer chamber based analysis; assay type: functional, organism-based
Trypanosoma cruzi [4] = assay: Induction of cell death in Trypanosoma cruzi Y epimastigotes assessed as late apoptotic cells at 125 uM incubated for 24 hrs by Annexin V/7-AAD staining based flow cytometric analysis (reference value: 0.12 %); assay type: functional
Trypanosoma cruzi [5] = assay: Induction of mitochondrial membrane potential loss in Trypanosoma cruzi Y epimastigotes at 125 uM incubated for 24 hrs by Rhodamine 123 staining based flow cytometric analysis relative to control; assay type: functional
Trypanosoma cruzi [6] = assay: Induction of cell death in Trypanosoma cruzi Y epimastigotes assessed as live cells at 125 uM incubated for 24 hrs by Annexin V/7-AAD staining based flow cytometric analysis (reference value: 98.6 %); assay type: functional
Trypanosoma cruzi [7] = assay: Antitrypanosomal activity against Trypanosoma cruzi Y epimastigotes assessed as parasite growth inhibition measured after 48 hrs by hemocytometer chamber based analysis; assay type: functional, organism-based
Trypanosoma cruzi [8] = assay: Antitrypanosomal activity against Trypanosoma cruzi Y trypomastigotes infected in monkey LLC-MK2 cells assessed as reduction in cell death inducing capability incubated for 24 hrs by hemocytometer chamber based analysis; assay type: functional, organism-based; conditions: LLC-MK2, 24 h
[9] = Selectivity index, ratio of EC50 for Cytotoxicity against monkey LLC-MK2 cells to EC50 for antitrypanosomal activity against Trypanosoma cruzi Y trypomastigotes infected in monkey LLC-MK2 cells; assay type: toxicity, cell-based; conditions: read-out: Ratio EC50
Trypanosoma cruzi [10] = assay: Induction of cell death in Trypanosoma cruzi Y epimastigotes assessed as dead cells at 125 uM incubated for 24 hrs by Annexin V/7-AAD staining based flow cytometric analysis (reference value: 1.13 %); assay type: functional
Trypanosoma cruzi [11] = assay: Antitrypanosomal activity against Trypanosoma cruzi Y epimastigotes assessed as parasite growth inhibition measured after 24 hrs by hemocytometer chamber based analysis; assay type: functional, organism-based
Trypanosoma cruzi [12] = assay: Induction of cell death in Trypanosoma cruzi Y epimastigotes assessed as dead cells at 7.2 uM incubated for 24 hrs by Annexin V/7-AAD staining based flow cytometric analysis (reference value: 1.13 %); assay type: functional
Trypanosoma cruzi [13] = assay: Induction of membrane damage in Trypanosoma cruzi Y epimastigotes at EC50 measured after 12 hrs by SEM analysis; assay type: organism-based; conditions: Cell membrane
Trypanosoma cruzi [14] = assay: (§1) Antitrypanosomal activity against Trypanosoma cruzi Y amastigotes infected in monkey LLC-MK2 cells assessed as reduction in reduction in amastigotes per 100 cells measured after 48 hrs by Giemsa staining based analysis; assay type: functional, organism-based; conditions: LLC-MK2, 48 h
Trypanosoma cruzi [15] = assay: Induction of cell death in Trypanosoma cruzi Y epimastigotes assessed as live cells at 7.2 uM incubated for 24 hrs by Annexin V/7-AAD staining based flow cytometric analysis (reference value: 98.6 %); assay type: functional
Trypanosoma cruzi [16] = assay: Induction of oxidative stress in Trypanosoma cruzi Y epimastigotes assessed as increase in ROS formation at 7.2 uM incubated for 24 hrs by DCFH-DA staining based analysis relative to control; assay type: functional
[17] = as §1, with “Selectivity index, ratio of EC50 for Cytotoxicity against monkey LLC-MK2 cells to EC50 for antitrypanosomal” for “Antitrypanosomal”, “24” for “48”; assay type: toxicity, cell-based; conditions: read-out: Ratio EC50
[18] = Cytotoxicity against monkey LLC-MK2 cells assessed as reduction in cell viability incubated for 48 hrs by MTT assay; assay type: toxicity, cell-based; conditions: Macaca mulatta (monkey)
Trypanosoma cruzi [19] = assay: Induction of cell death in Trypanosoma cruzi Y epimastigotes assessed as early apoptotic cells at 7.2 uM incubated for 24 hrs by Annexin V/7-AAD staining based flow cytometric analysis (reference value: 0.11 %); assay type: functional
Trypanosoma cruzi [20] = assay: Induction of mitochondrial membrane potential loss in Trypanosoma cruzi Y epimastigotes at 7.2 uM incubated for 24 hrs by Rhodamine 123 staining based flow cytometric analysis relative to control; assay type: functional
[21] = as §1, with “Selectivity index, ratio of EC50 for Cytotoxicity against monkey LLC-MK2 cells to EC50 for antitrypanosomal” for “Antitrypanosomal”; assay type: toxicity, cell-based; conditions: read-out: Ratio EC50
Trypanosoma cruzi [22] = assay: Antitrypanosomal activity against Trypanosoma cruzi Y amastigotes infected in monkey LLC-MK2 cells assessed as reduction in reduction in amastigotes per 100 cells measured after 24 hrs by Giemsa staining based analysis; assay type: functional, organism-based; conditions: LLC-MK2, 24 h
Trypanosoma cruzi [23] = assay: Induction of cell death in Trypanosoma cruzi Y epimastigotes assessed as late apoptotic cells at 7.2 uM incubated for 24 hrs by Annexin V/7-AAD staining based flow cytometric analysis (reference value: 0.12 %); assay type: functional
Trypanosoma cruzi [24] = assay: Antitrypanosomal activity against Trypanosoma cruzi Y trypomastigotes infected in monkey LLC-MK2 cells assessed as reduction in cell death inducing capability incubated for 24 hrs by Neubauer chamber based analysis; assay type: functional, organism-based; conditions: LLC-MK2, 24 h
Trypanosoma cruzi [25] = assay: Induction of cell death in Trypanosoma cruzi Y epimastigotes assessed as dead cells at 13.5 uM incubated for 24 hrs by Annexin V/7-AAD staining based flow cytometric analysis (reference value: 1.13 %); assay type: functional
Trypanosoma cruzi [26] = assay: Induction of cell death in Trypanosoma cruzi Y epimastigotes assessed as early apoptotic cells at 13.5 uM incubated for 24 hrs by Annexin V/7-AAD staining based flow cytometric analysis (reference value: 0.11 %); assay type: functional
Trypanosoma cruzi [27] = assay: Induction of cell death in Trypanosoma cruzi Y epimastigotes assessed as live cells at 13.5 uM incubated for 24 hrs by Annexin V/7-AAD staining based flow cytometric analysis (reference value: 98.6 %); assay type: functional
Trypanosoma cruzi [28] = assay: Induction of cell death in Trypanosoma cruzi Y epimastigotes assessed as late apoptotic cells at 13.5 uM incubated for 24 hrs by Annexin V/7-AAD staining based flow cytometric analysis (reference value: 0.12 %); assay type: functional
Trypanosoma cruzi [29] = assay: Induction of oxidative stress in Trypanosoma cruzi Y epimastigotes assessed as increase in ROS formation at 13.5 uM incubated for 24 hrs by DCFH-DA staining based analysis relative to control; assay type: functional

| Molecule | EC50 at 24 h [2] [µM] | EC50 (Trypanosoma cruzi [3]) [µM] | EC50 (Trypanosoma cruzi [7]) [µM] | EC50 (Trypanosoma cruzi [8]) [nM] | selectivity ratio [9] | EC50 (Trypanosoma cruzi [11]) [µM] | other results |
| --- | --- | --- | --- | --- | --- | --- | --- |
| O=C(Cn1ccnc1[N+](=O)[O-])NCc1ccccc1 [BENZNIDAZOLE] | 503 | 22.1 | 37.4 | 161000 | 3.11 | 115 | Activity (Trypanosoma cruzi [1]): 0.06%; Activity (Trypanosoma cruzi [4]): 1.01%; Activity (Trypanosoma cruzi [5]): 70%; Activity (Trypanosoma cruzi [6]): 93.22%; Activity (Trypanosoma cruzi [10]): 5.71% |
| H-AIPAAMGMKQNK-OH | 43.1 | 8.7 | 9.7 | 590 | 72.9 | 7.2 | Activity (Trypanosoma cruzi [12]): 12.42%; Activity (Trypanosoma cruzi [13]): Active; EC50 (Trypanosoma cruzi [14]): 370 nM; Activity (Trypanosoma cruzi [15]): 85.36%; Activity (Trypanosoma cruzi [16]): 40%; selectivity ratio at 24 h [17]: 32.6; EC50 at 48 h [18]: 35.8 µM; Activity (Trypanosoma cruzi [19]): 1.13%; Activity (Trypanosoma cruzi [20]): 65%; selectivity ratio at 48 h [21]: 96.7; EC50 (Trypanosoma cruzi [22]): 1320 nM; Activity (Trypanosoma cruzi [23]): 1.09% |
| H-FWGKLAKWALKAIPA-OH | 60 | – | – | 1030 | 58.2 | – | – |
| H-FWGRLAKWALKAIPA-OH | 9.6 | – | – | 1090 | 8.8 | – | – |
| H-FWGTLAKWAKKAIPA-OH | 97 | – | – | 1090 | – | – | – |
| H-FWGTLAKWALKAIPA-OH | > 50 | – | – | > 50000 | < 50 | – | – |
| H-FWGTLAKWALKAIPAAMGMKQNK-OH | 25.7 | 2.4 | 3.6 | – | 80.3 | 4.7 | EC50 (Trypanosoma cruzi [24]): 320 nM |
| H-FWGTLAKWALRAIPA-OH | 38.5 | – | – | 1540 | 24.7 | – | – |
| H-FWGTLAKWARKAIPA-OH | 25.1 | – | – | 3310 | 7.5 | – | – |
| H-FWGTLARWALKAIPA-OH | 55 | – | – | 5100 | 10.8 | – | – |
| H-FWKTLAKWALKAIPA-OH | 73.4 | 19.3 | 16.8 | 860 | 85.3 | 13.5 | Activity (Trypanosoma cruzi [13]): Active; EC50 (Trypanosoma cruzi [14]): 280 nM; selectivity ratio at 24 h [17]: 80.7; EC50 at 48 h [18]: 43.9 µM; Activity (Trypanosoma cruzi [25]): 25.06%; Activity (Trypanosoma cruzi [26]): 0.01%; Activity (Trypanosoma cruzi [27]): 74.1%; Activity (Trypanosoma cruzi [28]): 1.04%; Activity (Trypanosoma cruzi [29]): 58%; selectivity ratio at 48 h [21]: 157; EC50 (Trypanosoma cruzi [22]): 910 nM |
| H-FWRTLAKWALKAIPA-OH | 13 | – | – | 690 | 18.8 | – | – |
| H-GTLAKWALKAIPA-OH | 189 | – | – | 8760 | 21.6 | – | – |
